# Tests used:
# H460 lung cancer cells = experiment: Alamar Blue proliferation assay with pair-wise miRNA combinations; type: cell-based, human
# From the text: miRNAs function in multiple pathways controlling multiple cellular processes. Cancer cells frequently show aberrations in several different pathways, which determine their oncogenic properties. […] The inventors assessed the efficacy of pair-wise miRNA combinations, administering hsa-miR-34a concurrently with either hsa-miR-124a, hsa-miR-126, hsa-miR-147, hsa-let-7b, hsa-let-7c or hsa-let-7g (Pre-miR™ miRNA, Ambion cat. no. AM17100). H460 lung cancer cells were transiently reverse-transfected in triplicate with each miRNA at a final concentration of 300 pM, resulting in 600 pM of total oligonucleotide. For negative controls, 600 pM of Pre-miR™ microRNA Precursor Molecule-Negative Control #2 (Ambion cat. no. AM17111) were used. To correlate the effect of various combinations with the effect of the sole miRNA, each miRNA at 300 pM was also combined with 300 pM negative control miRNA. Reverse transfection was carried out using the following parameters: 7,000 cells per 96 well, 0.15 μl Lipofectamine™ 2000 (Invitrogen) in 20 μl OptiMEM (Invitrogen), 100 μl total transfection volume. […] Cells were harvested 72 hours after transfection and subjected to Alamar Blue assays (Invitrogen). Percent proliferation values from the Alamar Blue assays were normalized to those obtained from cells treated with 600 pM negative control miRNA. Data are expressed as % proliferation relative to negative control miRNA-treated cells (Table 8, FIG. 3).
# Additive activity of pair-wise combinations (e.g., hsa-miR-34a plus hsa-miR-147) is defined as an activity that is greater than the sole activity of each miRNA (e.g., the activity of hsa-miR-34a plus hsa-miR-147 is greater than that observed for hsa-miR-34a plus NC and the activity of hsa-miR-34a plus hsa-miR-147 is greater than that observed for hsa-miR-147 plus NC). Synergistic activity of pair-wise combinations is defined as an activity that is greater than the sum of the sole activity of each miRNA (e.g., the activity of hsa-miR-34a plus hsa-let-7g is greater than that observed for the sum of the activity of hsa-miR-34a plus NC and the activity of hsa-let-7g plus NC). […] The combinatorial use of miRNAs represents a potentially useful therapy for cancer and other diseases.
# lung cancer cells (A549) = conditions: cited from earlier work
# [1] = test system: PPC-1 prostate cancer xenograft; experiment: Tumor growth of human prostate cancer xenograft; type: in vivo, NOD/SCID mice
# Experimental: Therefore, hsa-miR-34a is likely to interfere with prostate tumor growth in the animal. To explore this possibility, the therapeutic potential of synthetic hsa-miR-34a miRNA was evaluated in the animal using the PPC-1 human prostate cancer xenograft. 5×10^6 PPC-1 cells per animal were electroporated with 1.6 μM synthetic hsa-miR-34a or negative control miRNA (Pre-miR™-hsa-miR-34a, Ambion cat. no. AM17100; NC, Pre-miR™ microRNA Precursor Molecule-Negative Control #2, Ambion cat. no. AM17111), mixed with BD Matrigel™, (BD Biosciences; San Jose, Calif., USA; cat. no. 356237) in a 1:1 ratio and implanted subcutaneously into the lower back of NOD/SCID mice (Charles River Laboratories, Inc.; Wilmington, Mass., USA). A group of 7 mice was injected with hsa-miR-34a treated PPC-1 cells, and a group of 7 animals was injected with PPC-1 cells treated with negative control miRNA. To maintain steady levels of miRNA, 6.25 μg of each hsa-miR-34a or negative control miRNA conjugated with the lipid-based siPORT™ amine delivery agent (Ambion, Austin, Tex.; cat. no. AM4502) were repeatedly administered on days 7, 13, 20, and 25 via intra-tumoral injections. Given an average mouse weight of 20 g, this dose equals 0.3125 mg/kg. Tumor growth was monitored by taking caliper measurements every 1-2 days for 32 days. Tumor volumes were calculated using the formula, Volume=length×width×width/2, in which the length is greater than the width, and plotted over time (FIG. 7). Standard deviations are shown in the graph. All data points had p values<0.01. p values were as low as 1.86×10^−9 for data obtained on day 22, indicating statistical significance.
# PPC-1 tumors = experiment: Histology and immunohistochemistry (Ki-67, caspase 3) of xenograft tumors; type: in vivo, NOD/SCID mice
# Experimental: To gain further insight into the biological status of these cells, immunohistochemistry analyses specific for the proliferation marker Ki-67, as well as caspase 3, an indicator of apoptosis were performed.
# [2] = test system: cervical cancer cells (HeLa); conditions: cited from earlier work
# [3] = areas with viable cells in treated PPC-1 tumors
substance,measurement,setting,value
"hsa-miR-34a: synthetic miRNA; mature sequence UGGCAGUGUCUUAGCUGGUUGUU (MIMAT0000255; SEQ ID NO:1) (synthetic miRNA, chemistry not given here)",reduction of proliferation,H460 lung cancer cells; 300 pM hsa-miR-34a plus 300 pM negative control miRNA,0.42%
same,% proliferation,"H460 lung cancer cells; each miRNA 300 pM (600 pM total), 72 h, normalized to 600 pM negative control miRNA",99.58%
same,proliferation,lung cancer cells (A549),inhibits the proliferation
same,average tumor volume,"[1]; day 32, cells electroporated with 1.6 μM, then 6.25 μg intratumoral on days 7, 13, 20, 25, n=7",151 mm^3
same,effect of each single administration on tumor volumes,"[1]; mouse, in vivo",acute regression of tumor volumes
same,tumor growth of PPC-1 xenograft,[1]; repeated dosing,blocked tumor growth
same,tumor histology (hematoxylin and eosin),PPC-1 tumors; PPC-1 tumors,consisted mostly of matrigel with cellular debris and sparsely distributed cells
same,Ki-67 (proliferation marker) immunohistochemistry,PPC-1 tumors; [3],reduced levels
same,caspase 3 (apoptosis indicator) immunohistochemistry,PPC-1 tumors; [3],increased levels
same,proliferation,[2],inhibits the proliferation

# Reference: patent US20090227533A1, “miR-34 Regulated Genes and Pathways as Targets for Therapeutic Intervention” (priority 2007, published 2009)
